Assay results taken from US12427188B2, “Pyocyanine demethylases and related phenazine degrading agents compositions, methods and systems for interfering with viability of bacteria” (priority 2020, dated 2025).
Read-outs that look alike come from different tables or passages of the source.

How the values were obtained:
[1] = tested on: PA14; experiment: Redox cycling, reduction by and survival support of PA14; assay type: cell-based, P. aeruginosa
[2] = oxidized form; literature values (footnotes a, c, d, e); cited from earlier work
[3] = copper chelating agent; cited from earlier work
[4] = Redox potential E0' vs. NHE of redox-active compounds; assay type: physicochemical; details: measured in aqueous solution at pH 7 in this study (footnote b)
[5] = tested on: Pseudomonas aeruginosa aggregate biofilms; experiment: PodA and tobramycin agar block biofilm assay (ABBA) synergy experiments; assay type: cell-based; details: for peak PI intensity: PodA10 5 μM, tobramycin 50 μg mL^−1
Description: Pseudomonas aeruginosa PodA and tobramycin agar block biofilm assay (ABBA) synergy experiments. Starter Pseudomonas aeruginosa cultures were grown 24 h at 37° C. shaking in LB and the OD500 was determined by diluting cells 1:10. For inoculation into agar, cells were first diluted to an OD of 1.0, followed by a 1:10 dilution for a final OD of 0.1. Molten LB agar (1% w/v) or SCFM agar (1% w/v, made by mixing premade 2× SCFM and 2% agar) was incubated at 44° C., after which 10 μL of OD 0.1 culture was added and mixed into 1 mL of agar, for a final starting OD of 0.001. A portion of the mixture (200 μL) was pipetted into a well of an 8-well glass chamber slide for microscopy (Thermo Fisher Scientific #155409) or into a 2 mL Eppendorf tube for cell viability experiments. ABBAs were incubated at 37° C. for 24 h in a Tupperware lined with wet paper towels. Following growth, ABBAs were washed with 200 μL of HEPES (20 mM, pH 7) to rid planktonic cells growing on the surface of the agar. Treatment stocks (100 μL each) were made by diluting PodA10 and/or tobramycin into HEPES (final concentration of 20 mM, pH 7), with the no treatment control consisting of solely HEPES. Final concentrations of PodA (5 μM) and tobramycin (50 ug mL^−1) were calculated accounting for the total volume of the agar+liquid. ABBAs were treated overnight (14 h), treatment mixture was decanted, and agar blocks were washed with HEPES (400 μL).
For microscopy experiments, cells were incubated for 30 min with 125 μL of diluted propidium iodide (final concentration of 490 μM when added to ABBA, taking into account volume of the agar) and SYTO-9 (final concentration of 16 μM), after which 50 μL of a 1:50 dilution of 5-μm fluorescent beads (Spherotech; CFP-5045-2) was added to each agar block. ABBAs were imaged with a Leica TCS SPE confocal microscope as described elsewhere using 512×512-pixel format (29)[44], with the exception of imaging with a 6 μm step-size in the Z-direction.
For cell viability experiments, 300 μL of HEPES (20 mM, pH 7) was pipetted into each Eppendorf ABBA tube and samples were homogenized on speed 3 of a Bio-Gen PRO200 Homogenizer (PRO Scientific). Samples were briefly spun to rid of air bubbles (<1,000×g) and diluted in series and plated as described above in liquid synergy experiments. Experiments were completed with biological triplicates and was repeated thrice, with a representative figure shown.
ABBA microscopy image analysis. Images were analyzed in FIJI by re-slicing the data set in the XZ dimension followed by a max-intensity Z-projection. The brightness/contrast was auto-normalized in FIJI to the sample treated with only tobramycin. These LUT values were then applied to the other images in the corresponding data sets. Average pixel intensities along the Z-dimensions were found using the “Plot Profile” function in FIJI.
To determine mean pixel intensity and aggregate volume of each ABBA, channels 1 (SYTO-9) and 2 (Propidium Iodide) were combined into a single channel using FIJI. Images were analyzed in Imaris and aggregate masks were created using the “surface” module of the software. Using the surface Imaris wizard, all options under algorithm settings were unchecked. For surface channel settings, channel 3 (representing combined channels) was chosen and default settings were maintained. For threshold settings, the no treatment ABBA sample was analyzed for proper data inclusion and a value of 60 was used for all LB samples, with a threshold value of 40 for all SCFM samples. Lastly, data were excluded 0.1 μm from the XY edges, to exclude aggregates that were cut off due to imaging field. Data were not excluded from the top edge of the ABBA, as images were collected from the surface of the agar using fluorescent beads as described above. Exported statistics were used to plot aggregate volume or mean PI intensity against position of aggregates in the Z-dimension. […]

Molecule: Oc1cccc2nc3ccccc3nc12 [1-Hydroxyphenazine (1-OHPHZ), 1-Hydroxyphenazine]
- Reduction by PA14? [1]: Yes
- Support survival? [1]: Yes
- # of Redox cycles over 7 days [1]: 14
- E^0, (vs. NHE) (mV) [2]: −174 ^a mV
- log of the equilibrium constant βmlh of binding copper [3]: 8.68

Molecule: O=C1c2ccc(S(=O)(=O)O)cc2C(=O)c2ccc(S(=O)(=O)O)cc21 [2,6-AQDS]
- Reduction by PA14? [1]: Yes (very slowly)
- Support survival? [1]: No
- # of Redox cycles over 7 days [1]: No cycle
- E^0, (vs. NHE) (mV) [2]: −184 ^d mV

Molecule: O=C(O)Cc1cc(O)ccc1O [Homogentisic acid (HMA), Homogentisic acid]
- E^0, (vs. NHE) (mV) [4]: +306^b mV
- Support survival? [1]: No
- # of Redox cycles over 7 days [1]: No cycle

Molecule: CN(C)c1ccc2nc3ccc(=[N+](C)C)cc-3sc2c1 [Methylene blue (MB), Methylene blue]
- E^0, (vs. NHE) (mV) [4]: 0 mV
- Reduction by PA14? [1]: Yes
- Support survival? [1]: No
- # of Redox cycles over 7 days [1]: 3
- E^0, (vs. NHE) (mV) [2]: +11 mV

Molecule: C[n+]1ccc(-c2cc[n+](C)cc2)cc1 [Paraquat]
- Reduction by PA14? [1]: No
- Support survival? [1]: No
- # of Redox cycles over 7 days [1]: No cycle
- E^0, (vs. NHE) (mV) [2]: −446^e mV

Molecule: O=C(O)c1cccc2nc3ccccc3nc12 [Phenazine-1-carboxylate (PCA), Phenazine-1-carboxylate]
- Reduction by PA14? [1]: Yes
- Support survival? [1]: Yes
- # of Redox cycles over 7 days [1]: 22
- E^0, (vs. NHE) (mV) [2]: −114 ^a mV

Molecule: C[n+]1c2ccccc2nc2c([O-])cccc21 [Pyocyanin (PYO), Pyocyanin]
- Reduction by PA14? [1]: Yes
- Support survival? [1]: Yes
- # of Redox cycles over 7 days [1]: 31
- E^0, (vs. NHE) (mV) [2]: −40^a mV

Molecule: NC[C@H]1O[C@H](O[C@H]2[C@H](O)[C@@H](O[C@H]3O[C@H](CO)[C@@H](O)[C@H](N)[C@H]3O)[C@H](N)C[C@@H]2N)[C@H](N)C[C@@H]1O [tobramycin]
- PI staining versus non-treated samples ([5]; LB ABBA, hypoxia/anoxia from around 300 μm): no significant differences
- peak PI intensity ([5]; LB): 151.0 AUs
- PI staining versus no treatment controls ([5]; SCFM ABBA, all depths): considerably higher than no treatment controls at all depths
- peak PI intensity ([5]; SCFM): 22.6 AUs

B1: PodA: Pyocyanin demethylase of M. fortuitum, SEQ ID NO: 1; in the ABBA experiments the PodA added was PodA10 (protein, listed as Mycobacterium fortuitum)
chain: MTGKTKPAIIGGVAITALAAAGLGVWLFTDGRGGRSTTEPVTMTLDVKNDQVAKHDFGKPGMDVGDMDIFSDILSVDGKQVGYDGGACFFTNVTPDNPMTYCELTIHLDAGEIFARSLTPHTLAPFTMAITGGTGEYANSKGELTVSGVATPDEKYELKLTK
- outside ring PI staining pattern of aggregates ([5]; LB, XY-plane, versus untreated aggregates): abolished
- PI staining at depth ([5]; PodA alone, >300 μm in LB (anoxic zone)): did not significantly change
